Source: ChEMBL document CHEMBL1201862, “PubChem BioAssay data set” (2004)
Active and inactive are the calls of the source.

How the values were obtained:
[1] = biological target: T1, Ubiquitin-conjugating enzyme E2 N (Homo sapiens, UniProt P61088); assay type: functional;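 further: Dose-response confirmation in a TR-FRET assay detecting UBC13-driven polyubiquitin chain formation, inhibition measured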
T1 sequence (P61088 whole entry): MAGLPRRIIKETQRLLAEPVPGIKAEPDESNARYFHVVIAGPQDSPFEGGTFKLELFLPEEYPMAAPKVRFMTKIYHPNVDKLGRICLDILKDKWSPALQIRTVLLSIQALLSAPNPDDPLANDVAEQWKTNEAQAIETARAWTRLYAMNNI

[2] = biological target: T2, Intestinal-type alkaline phosphatase (Homo sapiens, UniProt P09923); assay: human IAP activators, dose response, biochemical, luminescent, uHTS hits, set 2 (AID 488817); assay type: functional;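 further: potency of activators that raise enzyme activity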
[3] = biological target: T2, Intestinal-type alkaline phosphatase; assay: inhibition of human intestinal alkaline phosphatase – biochemical, dose response (AID 488876); assay type: functional
[4] = biological target: Bifunctional protein GlmU (Mycobacterium tuberculosis, UniProt P9WMN3); assay: Inhibitors of Mycobacterial Glucosamine-1-phosphate acetyl transferase (GlmU). Secondary screen.; parameters: species or system Mycobacterium tuberculosis H37Rv
ORF 73 = ORF 73 (Human herpesvirus 8, UniProt O40947); assay: inhibitors of C-LANA binding to LBS DNA, dose response, biochemical, fluorescence polarization, cherry-picked samples (AID 504725); parameters: species or system Human gammaherpesvirus 8;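 further: fluorescence polarization of a labeled DNA duplex reporting LANA DNA binding; potency is for inhibitors that block LANA binding to the DNA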
Troponin, cardiac muscle = Troponin, cardiac muscle (Homo sapiens, UniProt P19429+P45379+P63316); assay: inhibitors of cardiac thin filament calcium sensitivity, dose response, biochemical, fluorescence, cardiac regulated thin filaments, triplicate IC50 (AID 504742); assay type: protein-complex assay
BJ = assay: cytotoxicity toward BJ-TERT-LT-ST fibroblasts, dose response, cell-based, RAS-independent, luminescence (AID 1935); assay type: functional; conditions: Homo sapiens;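 further: BJ fibroblasts immortalized with TERT plus LT and ST oncogenes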
[5] = cytotoxicity in HEK-293T cells, dose response, cytotoxicity control for TCR NF-kB inhibitor project, luminescence, T-cell screen hits (AID 489026); assay type: functional, cell-based;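 further: cells exposed to compound about 14 hours before the viability readout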
[6] = Shn3 3'UTR reporter inhibitors, dose response, cell-based, Clone20 osteoblasts, firefly luciferase, cherry-picked (AID 624132); assay type: functional;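 further: firefly luciferase luminescence from reporter carrying the Shn3 3'UTR in osteoblasts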
[7] = biological target: Tyrosine-protein kinase JAK2 (Homo sapiens, UniProt O60674); assay type: functional;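 further: JAK2 tested as one member of a kinase panel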
[8] = biological target: Phosphorylase b kinase gamma catalytic chain, liver/testis isoform (Homo sapiens, UniProt P15735); assay type: functional;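 further: PHKG2 measured as one member of a kinome-wide kinase panel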
[9] = biological target: Tyrosine-protein kinase SYK (Homo sapiens, UniProt P43405); assay type: functional
[10] = biological target: MAP kinase-activated protein kinase 2 (Homo sapiens, UniProt P49137); assay type: functional;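 further: measured as one member of a kinome-wide kinase panel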
[11] = biological target: Serine/threonine-protein kinase PAK 4 (Homo sapiens, UniProt O96013); assay type: functional;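 further: value obtained within a kinome profiling panel in which PAK4 was one of the panel members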
[12] = biological target: Serine/threonine-protein kinase PAK 1 (Homo sapiens, UniProt Q13153); assay type: functional
[13] = biological target: Fibroblast growth factor receptor 1 (Homo sapiens, UniProt P11362); assay type: functional
[14] = biological target: Tyrosine-protein kinase ITK/TSK (Homo sapiens, UniProt Q08881); assay type: functional;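 further: affinity for ITK measured as one member of a broad kinase panel profiling binding across the kinome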
[15] = biological target: Serine/threonine-protein kinase N2 (Homo sapiens, UniProt Q16513); assay type: functional
[16] = biological target: MAP/microtubule affinity-regulating kinase 3 (Homo sapiens, UniProt P27448); assay type: functional;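 further: MARK3 affinity measured as one member of a kinome panel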
[17] = biological target: Serine/threonine-protein kinase pim-3 (Homo sapiens, UniProt Q86V86); assay type: functional;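 further: value obtained as one member of a broad kinase panel profiling effort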
[18] = biological target: Protein kinase C gamma type (Homo sapiens, UniProt P05129); assay type: functional
[19] = biological target: Proto-oncogene tyrosine-protein kinase Src (Homo sapiens, UniProt P12931); assay type: functional;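 further: SRC entry within a kinome-wide kinase profiling panel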
[20] = biological target: Mitogen-activated protein kinase kinase kinase kinase 2 (Homo sapiens, UniProt Q12851); assay type: functional;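 further: measured as one member of a kinome-wide kinase panel, with MAP4K2 as the panel entry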
Activated CDC42 kinase 1 = Activated CDC42 kinase 1 (Homo sapiens, UniProt Q07912); assay: Navigating the Kinome. Panel member name: ACK1; assay type: functional
[21] = biological target: Platelet-derived growth factor receptor beta (Homo sapiens, UniProt P09619); assay type: functional;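 further: value comes from a kinome panel, with PDGFRB tested as one panel member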
[22] = biological target: Receptor-type tyrosine-protein kinase FLT3 (Homo sapiens, UniProt P36888); assay type: functional;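 further: FLT3 was tested as one member of a kinome-wide kinase panel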
[23] = biological target: Serine/threonine-protein kinase Chk1 (Homo sapiens, UniProt O14757); assay type: functional;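 further: measured as one member of a kinome-wide kinase profiling panel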
[24] = biological target: Casein kinase I isoform delta (Homo sapiens, UniProt P48730); assay type: functional;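 further: measured as one member (CSNK1D) of a kinome panel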
[25] = biological target: MAP kinase-interacting serine/threonine-protein kinase 2 (Homo sapiens, UniProt Q9HBH9); assay type: functional
[26] = biological target: Vascular endothelial growth factor receptor 2 (Homo sapiens, UniProt P35968); assay type: functional
[27] = biological target: Maternal embryonic leucine zipper kinase (Homo sapiens, UniProt Q14680); assay type: functional
[28] = biological target: Platelet-derived growth factor receptor alpha (Homo sapiens, UniProt P16234); assay: Navigating the Kinome. Panel member name: PDGFRA; assay type: functional
[29] = biological target: Tyrosine-protein kinase Fer (Homo sapiens, UniProt P16591); assay type: functional;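 further: FER tested as one member of a kinome panel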
[30] = biological target: Homeodomain-interacting protein kinase 4 (Homo sapiens, UniProt Q8NE63); assay type: functional
[31] = biological target: Fibroblast growth factor receptor 3 (Homo sapiens, UniProt P22607); assay type: functional
[32] = biological target: Dual specificity protein kinase CLK4 (Homo sapiens, UniProt Q9HAZ1); assay type: functional
[33] = biological target: Lymphokine-activated killer T-cell-originated protein kinase (Homo sapiens, UniProt Q96KB5); assay type: functional;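 further: value comes from a kinase panel screen in which TOPK was one of the panel members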
[34] = biological target: Macrophage-stimulating protein receptor (Homo sapiens, UniProt Q04912); assay: Navigating the Kinome. Panel member name: MST1R; assay type: functional
[35] = biological target: Dual specificity mitogen-activated protein kinase kinase 2 (Homo sapiens, UniProt P36507); assay: Navigating the Kinome. Panel member name: MAP2K2; assay type: functional
[36] = biological target: Dual specificity tyrosine-phosphorylation-regulated kinase 1A (Homo sapiens, UniProt Q13627); assay type: functional;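 further: measured against DYRK1A as one member of a broad kinome profiling panel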
[37] = biological target: Tyrosine-protein kinase receptor UFO (Homo sapiens, UniProt P30530); assay type: functional
[38] = biological target: Leukocyte tyrosine kinase receptor (Homo sapiens, UniProt P29376); assay: Navigating the Kinome. Panel member name: LTK; assay type: functional
[39] = biological target: ATP-dependent molecular chaperone HSP82 (Candida albicans (strain WO-1) (Yeast), UniProt C4YTQ8); assay: loss of DOC-induced GRE-beta-galactosidase reporter signal, dose response, Hsp90 inhibitor project, S. cerevisiae, luminescence (AID 2400); assay type: functional, cell-based;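 further: beta-galactosidase luminescence from glucocorticoid response element reporter as proxy for Hsp90 function; inhibitor potency where signal loss means Hsp90 inhibition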

## O=C(NN1C(=O)CSC1=S)C(=O)NN1C(=O)CSC1=S
[1]
  IC50: > 20 µM (inactive)
[2]
  EC50: 12.4 µM (active)
[3]
  IC50: > 100 µM (inactive)

## O=C1NC(=S)S/C1=C\C=C\c1ccc([N+](=O)[O-])o1
[4]
  IC50: 19.1 µM (active)
ORF 73
  AC50: 71.4 µM (active)
Troponin, cardiac muscle
  IC50: 40.2 µM (inactive)

## COC(=O)C1CN(C#N)N(c2ccc(Cl)cc2)C12c1ccccc1-c1ccccc12 (stereo not drawn)
BJ
  EC50: 2.49 µM (inconclusive)
[5]
  IC50: 56.6 µM (inactive)
[6]
  AC50: < 0.26 µM (active)

## Nc1noc2cccc(-c3cccc(O)c3)c12
[7]
  Ki: > 1.58 µM (inactive)
[8]
  Ki: > 5.01 µM (inactive)
[9]
  Ki: > 1.58 µM (inactive)
[10]
  Ki: > 7.94 µM (inactive)
[11]
  Ki: > 5.01 µM (inactive)
[12]
  Ki: > 10 µM (inactive)
[13]
  Ki: 15.8 µM (active)
[14]
  Ki: > 1.58 µM (inactive)
[15]
  Ki: > 7.94 µM (inactive)
[16]
  Ki: > 6.31 µM (inactive)
[17]
  Ki: > 7.94 µM (inactive)
[18]
  Ki: > 7.94 µM (inactive)
[19]
  Ki: 1.26 µM (active)
[20]
  Ki: 15.8 µM (active)
Activated CDC42 kinase 1
  Ki: 25.1 µM (active)
[21]
  Ki: 7.94 µM (active)
[22]
  Ki: 10 µM (active)
[23]
  Ki: > 7.94 µM (inactive)
[24]
  Ki: 6.31 µM (active)
[25]
  Ki: 1 µM (active)
[26]
  Ki: 7.94 µM (active)
[27]
  Ki: > 1.58 µM (inactive)
[28]
  Ki: 6.31 µM (active)
[29]
  Ki: > 1.58 µM (inactive)
[30]
  Ki: > 7.94 µM (inactive)
[31]
  Ki: > 2 µM (inactive)
[32]
  Ki: 1.26 µM (active)
[33]
  Ki: > 10 µM (inactive)
[34]
  Ki: 20 µM (active)
[35]
  Ki: 7.94 µM (active)
[36]
  Ki: 2 µM (active)
[37]
  Ki: > 2 µM (inactive)
[38]
  Ki: 1.26 µM (active)

## CN(C)S(=O)(=O)Oc1cccc(C(=O)Nc2ccc(Cl)c(Cl)c2)c1
[39]
  EC50: 18.2 µM (active)
